# In PubChem BioAssay (NCI):
#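 Test compounds were applied to cells in 96-well plates for 48 hours at 5 doses. TGI: concentration producing complete growth inhibition.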 Activity calls are given as the source filed them. Rule as the data show it: active = GI50 below about 0.43 µM; inactive = the rest.
# Columns and labels:
# Assay in all cases: growth of human tumour cells (NCI), 48 h
# [1] = system: TK-10 renal
# [2] = system: HOP-92 NSCLC
# [3] = system: NCI-H522 lung
# [4] = system: HCT-15 colon
# [5] = system: RXF 393 renal
# [6] = system: NCI/ADR-RES ovarian
# [7] = system: MDA-MB-435
# [8] = system: NCI-H226 lung
# [9] = system: SK-MEL-2 melanoma
# [10] = system: SK-MEL-5 melanoma
# [11] = system: HS 578T breast
# [12] = system: NCI-H23 lung
# [13] = system: OVCAR-5 ovarian
# [14] = system: EKVX NSCLC
# [15] = system: SF-295 CNS
# [16] = system: RPMI-8226 leukemia
# [17] = system: IGROV1 ovarian
# [18] = system: MCF7 breast
# [19] = system: HCT-116 colon
# [20] = system: SF-539 CNS
# [21] = system: T-47D breast
# [22] = system: HL-60(TB) leukemia
# [23] = system: HCC-2998 colon
# [24] = system: COLO 205 colon
# [25] = system: U251 CNS
# [26] = system: OVCAR-4 ovarian
# [27] = system: CAKI-1 renal
# [28] = system: HT29 colon
# [29] = system: SF-268 CNS
# [30] = system: 786-0 renal
# [31] = system: MALME-3M melanoma
# [32] = system: CCRF-CEM leukemia
# [33] = system: DU-145 prostate
# [34] = system: HOP-62 NSCLC
# [35] = system: A498 renal
# [36] = system: SR leukemia
# [37] = system: MDA-MB-231 breast
# [38] = system: ACHN renal
# [39] = system: BT-549 breast
# [40] = system: SW-620 colon
# [41] = system: OVCAR-3 ovarian
# [42] = system: UACC-257 melanoma
# [43] = system: OVCAR-8 ovarian
# [44] = system: M14 melanoma
# [45] = system: LOX IMVI melanoma
# [46] = system: UO-31 renal
# [47] = system: MDA-N
# [48] = system: SK-MEL-28 melanoma
# [49] = system: K-562 leukemia
# [50] = system: SK-OV-3 ovarian
# [51] = system: UACC-62 melanoma
# [52] = system: A549 NSCLC
# [53] = system: SNB-19 CNS
# [54] = system: KM12 colon
# [55] = system: SN12C renal
# [56] = system: MOLT-4 leukemia
# [57] = system: NCI-H460 lung
# [58] = system: PC-3 prostate
# [59] = system: SNB-75 CNS
smiles,measurement,setting,value
CCCCCCCCCCCC(=O)N(CCCCCCCCCCC(=O)O)CC(O)C(O)C(OC1OC(CO)C(O)C(O)C1O)C(O)CO (stereo unspecified),TGI,[1],> 100 µM
same,TGI,[2],> 100 µM
same,TGI,[3],> 100 µM
same,TGI,[4],> 100 µM
same,TGI,[5],> 100 µM
same,TGI,[6],> 100 µM
same,TGI,[7],> 100 µM
same,TGI,[8],> 100 µM
same,TGI,[9],> 100 µM
same,TGI,[10],> 100 µM
same,TGI,[11],> 100 µM
same,TGI,[12],> 100 µM
same,TGI,[13],> 100 µM
same,TGI,[14],> 100 µM
same,TGI,[15],> 100 µM
same,TGI,[16],> 100 µM
same,TGI,[17],> 100 µM
same,TGI,[18],> 100 µM
same,TGI,[19],> 100 µM
same,TGI,[20],> 100 µM
same,TGI,[21],> 100 µM
same,TGI,[22],> 100 µM
same,TGI,[23],> 100 µM
same,TGI,[24],> 100 µM
same,TGI,[25],> 100 µM
same,TGI,[26],> 100 µM
same,TGI,[27],> 100 µM
same,TGI,[28],> 100 µM
same,TGI,[29],> 100 µM
same,TGI,[30],> 100 µM
same,TGI,[31],> 100 µM
same,TGI,[32],> 100 µM
same,TGI,[33],> 100 µM
same,TGI,[34],> 100 µM
same,TGI,[35],> 100 µM
same,TGI,[36],> 100 µM
same,TGI,[37],> 100 µM
same,TGI,[38],> 100 µM
same,TGI,[39],> 100 µM
same,TGI,[40],> 100 µM
same,TGI,[41],> 100 µM
same,TGI,[42],> 100 µM
same,TGI,[43],> 100 µM
same,TGI,[44],> 100 µM
same,TGI,[45],> 100 µM
same,TGI,[46],> 100 µM
same,TGI,[47],> 100 µM
same,TGI,[48],> 100 µM
same,TGI,[49],> 100 µM
same,TGI,[50],> 100 µM
same,TGI,[51],> 100 µM
same,TGI,[52],> 100 µM
same,TGI,[53],> 100 µM
same,TGI,[54],> 100 µM
same,TGI,[55],> 100 µM
same,TGI,[56],> 100 µM
same,TGI,[57],> 100 µM
same,TGI,[58],> 100 µM
same,TGI,[59],> 100 µM
C#CCN(Cc1cc2c(=O)[nH]c(C)nc2cc1C)c1ccc(C(=O)N[C@@H](CCc2nn[nH]n2)C(=O)O)c(F)c1,outcome,[1],inactive
same,outcome,[2],inactive
same,outcome,[3],inactive
same,outcome,[4],inactive
same,outcome,[5],inactive
same,outcome,[6],inactive
same,outcome,[7],inactive
same,outcome,[8],inactive
same,outcome,[9],inactive
same,outcome,[10],inactive
same,outcome,[11],inactive
same,outcome,[12],inactive
same,outcome,[13],inactive
same,outcome,[14],inactive
same,outcome,[15],inactive
same,outcome,[16],inactive
same,outcome,[17],inactive
same,outcome,[18],inactive
same,outcome,[19],inactive
same,outcome,[20],inactive
same,outcome,[21],inactive
same,outcome,[22],inactive
same,outcome,[23],inactive
same,outcome,[24],inactive
same,outcome,[25],inactive
same,outcome,[26],inactive
same,outcome,[27],inactive
same,outcome,[28],inactive
same,outcome,[29],inactive
same,outcome,[30],inactive
same,outcome,[31],inactive
same,outcome,[32],inactive
same,outcome,[33],inactive
same,outcome,[34],inactive
same,outcome,[35],inactive
same,outcome,[36],inactive
same,outcome,[37],inactive
same,outcome,[38],inactive
same,outcome,[39],inactive
same,outcome,[40],inactive
same,outcome,[41],inactive
same,outcome,[42],inactive
same,outcome,[43],inactive
same,outcome,[44],inactive
same,outcome,[45],inactive
same,outcome,[46],inactive
same,outcome,[47],inactive
same,outcome,[48],inactive
same,outcome,[49],inactive
same,outcome,[50],inactive
same,outcome,[51],inactive
same,outcome,[52],inactive
same,outcome,[53],inactive
same,outcome,[54],inactive
same,outcome,[55],inactive
same,outcome,[56],inactive
same,outcome,[57],inactive
same,outcome,[58],inactive
same,outcome,[59],inactive
C=CCN1C(=O)CNC1=S,TGI,[1],> 100 µM
same,TGI,[2],> 100 µM
same,TGI,[3],> 100 µM
same,TGI,[4],> 100 µM
same,TGI,[5],> 100 µM
same,TGI,[6],> 100 µM
same,TGI,[7],> 100 µM
same,TGI,[8],> 100 µM
same,TGI,[9],> 100 µM
same,TGI,[10],> 100 µM
same,TGI,[11],> 100 µM
same,TGI,[12],> 100 µM
same,TGI,[13],> 100 µM
same,TGI,[14],> 100 µM
same,TGI,[15],> 100 µM
same,TGI,[16],> 100 µM
same,TGI,[17],> 100 µM
same,TGI,[18],> 100 µM
same,TGI,[19],> 100 µM
same,TGI,[20],> 100 µM
same,TGI,[21],> 100 µM
same,TGI,[22],78.9 µM
same,TGI,[23],> 100 µM
same,TGI,[24],> 100 µM
same,TGI,[25],> 100 µM
same,TGI,[26],> 100 µM
same,TGI,[27],> 100 µM
same,TGI,[28],> 100 µM
same,TGI,[29],> 100 µM
same,TGI,[30],> 100 µM
same,TGI,[31],> 100 µM
same,TGI,[32],77.6 µM
same,TGI,[33],> 100 µM
same,TGI,[34],> 100 µM
same,TGI,[35],> 100 µM
same,TGI,[36],> 100 µM
same,TGI,[37],> 100 µM
same,TGI,[38],> 100 µM
same,TGI,[39],> 100 µM
same,TGI,[40],> 100 µM
same,TGI,[41],> 100 µM
same,TGI,[42],> 100 µM
same,TGI,[43],> 100 µM
same,TGI,[44],> 100 µM
same,TGI,[45],> 100 µM
same,TGI,[46],> 100 µM
same,TGI,[47],> 100 µM
same,TGI,[48],> 100 µM
same,TGI,[49],> 100 µM
same,TGI,[50],> 100 µM
same,TGI,[51],> 100 µM
same,TGI,[52],> 100 µM
same,TGI,[53],> 100 µM
same,TGI,[54],> 100 µM
same,TGI,[55],> 100 µM
same,TGI,[56],> 100 µM
same,TGI,[57],> 100 µM
same,TGI,[58],> 100 µM
same,TGI,[59],> 100 µM
Cn1c(=O)c2[nH]c(CCCCc3nc4ccccc4[nH]3)nc2n(C)c1=O,TGI,[1],> 100 µM
same,TGI,[2],95.8 µM
same,TGI,[3],> 100 µM
same,TGI,[4],> 100 µM
same,TGI,[5],> 100 µM
same,TGI,[6],> 100 µM
same,TGI,[7],> 100 µM
same,TGI,[8],> 100 µM
same,TGI,[9],> 100 µM
same,TGI,[10],> 100 µM
same,TGI,[11],> 100 µM
same,TGI,[12],> 100 µM
same,TGI,[13],> 100 µM
same,TGI,[14],> 100 µM
same,TGI,[15],> 100 µM
same,TGI,[16],> 100 µM
same,TGI,[17],> 100 µM
same,TGI,[18],> 100 µM
same,TGI,[19],> 100 µM
same,TGI,[20],> 100 µM
same,TGI,[21],> 100 µM
same,TGI,[22],> 100 µM
same,TGI,[23],> 100 µM
same,TGI,[24],> 100 µM
same,TGI,[25],> 100 µM
same,TGI,[26],> 100 µM
same,TGI,[27],> 100 µM
same,TGI,[28],> 100 µM
same,TGI,[29],> 100 µM
same,TGI,[30],> 100 µM
same,TGI,[31],> 100 µM
same,TGI,[32],> 100 µM
same,TGI,[33],> 100 µM
same,TGI,[34],> 100 µM
same,TGI,[35],> 100 µM
same,TGI,[36],> 100 µM
same,TGI,[37],> 100 µM
same,TGI,[38],> 100 µM
same,TGI,[39],> 100 µM
same,TGI,[40],> 100 µM
same,TGI,[41],> 100 µM
same,TGI,[42],> 100 µM
same,TGI,[43],> 100 µM
same,TGI,[44],> 100 µM
same,TGI,[45],> 100 µM
same,TGI,[46],> 100 µM
same,TGI,[47],> 100 µM
same,TGI,[48],> 100 µM
same,TGI,[49],> 100 µM
same,TGI,[50],> 100 µM
same,TGI,[51],> 100 µM
same,TGI,[52],> 100 µM
same,TGI,[53],> 100 µM
same,TGI,[54],> 100 µM
same,TGI,[55],> 100 µM
same,TGI,[56],> 100 µM
same,TGI,[57],> 100 µM
same,TGI,[58],> 100 µM
same,TGI,[59],> 100 µM
